{
  "source": "patent US20070128217A1",
  "about": "(priority 2003, published 2007)",
  "key": {"[1]": {"test_system": "antibodies in sera from SARS patients (sera 1a, 1b, 2, 6, 37, 62, London, SARS-yellow, SARS-green)", "assay_type": "binding, human", "design": "Binding of serum 6 to linear peptides of protein X1 of SARS-CoV Urbani / Binding of serum 37 to linear peptides of protein X1 of SARS-CoV Urbani / Binding of serum 6 to looped/cyclic peptide (PEPSCAN-ELISA) / Binding of serum 37 to looped/cyclic peptide (PEPSCAN-ELISA) / Binding of serum 37 to looped/cyclic peptides of protein X1 of SARS-CoV Urbani / Binding of serum 6 to linear peptides of protein X2 / Binding of serum 37 to linear peptides of protein X2 / Binding of serum 37 to looped/cyclic peptides of protein X2 of SARS-CoV Urbani / Binding of serum 6 to linear peptides of protein M of SARS-CoV Urbani / Binding of serum 37 to linear peptides of protein M of SARS-CoV Urbani / Binding of serum 6 to looped/cyclic peptides of protein M of SARS-CoV Urbani / Binding of serum 37 to looped/cyclic peptides of protein M of SARS-CoV Urbani / Binding of serum 6 to linear peptides of protein X3 of SARS-CoV Urbani / Binding of serum 37 to linear peptides of protein X3 of SARS-CoV Urbani / Binding of serum 37 to looped/cyclic peptides of protein X3 of SARS-CoV Urbani / Binding of serum 6 to linear peptides of protein X4 of SARS-CoV Urbani / Binding of serum 37 to linear peptides of protein X4 of SARS-CoV Urbani / Binding of serum 37 to looped/cyclic peptides of protein X4 of SARS-CoV Urbani / Binding of serum 6 to linear peptides of protein X5 of SARS-CoV Urbani / Binding of serum 37 to linear peptides of protein X5 of SARS-CoV Urbani / Binding of serum 37 to looped/cyclic peptides of protein X5 of SARS-CoV Urbani / Binding of serum 6 to linear peptides of protein N of SARS-CoV Urbani / Binding of serum 37 to linear peptides of protein N of SARS-CoV Urbani / Binding of serum 6 to linear peptide (PEPSCAN-ELISA) / Binding of serum 1a to looped/cyclic peptides of protein N of SARS-CoV Urbani / Binding of serum 1b to looped/cyclic peptides of protein N of SARS-CoV Urbani / Binding of serum 2 to looped/cyclic peptides of protein N of SARS-CoV Urbani / Binding of serum 6 to looped/cyclic peptides of protein N of SARS-CoV Urbani / Binding of serum 37 to looped/cyclic peptides of protein N of SARS-CoV Urbani / Binding of serum 62 to looped/cyclic peptides of protein N of SARS-CoV Urbani / Binding of serum London to looped/cyclic peptides of protein N of SARS-CoV Urbani / Binding of serum SARS-green to looped/cyclic peptides of protein N of SARS-CoV Urbani: unit not given here"}, "[2]": {"test_system": "control sera (pooled serum of ten healthy LUMC hospital workers; commercial negative donor pooled serum from the Dutch bloodbank)", "assay_type": "binding, human", "design": "Binding of Control serum LUMC to linear peptides / Binding of Control serum Blood-bank to linear peptides / Binding of Control serum LUMC to looped peptides / Binding of Control Serum Blood-Bank to Looped peptides / Binding of Control serum LUMC to linear peptides of the protein M of SARS-CoV Urbani / Binding of Control serum Blood-bank to linear peptides of the protein M of SARS-CoV Urbani / Binding of Control serum LUMC to looped peptides of the protein M of SARS-CoV Urbani / Binding of Control Serum Blood-Bank to Looped peptides of the protein M of SARS-CoV Urbani: unit not given here"}, "[3]": {"test_system": "rabbit serum obtained by immunizing a rabbit with the SARS-CoV strain Frankfurt 1", "assay_type": "binding", "design": "Binding of a rabbit serum to linear peptides / Binding of a rabbit serum to looped peptides / Rabbit serum linear peptides / Rabbit serum looped peptides / Binding of a rabbit serum to linear peptides of protein N of SARS-CoV Urbani (Rabbit serum linear peptides) / Binding of a rabbit serum to looped/cyclic peptides of protein N of SARS-CoV Urbani (Rabbit serum looped peptides): unit not given here"}},
  "data": [
    {"sequence": "RHTYQLRARSVSPKL", "values": [
      {"measurement": "Binding of serum 1a to linear peptides of protein X4 of SARS-CoV Urbani", "setting": "[1]", "value": 0.8},
      {"measurement": "Binding of serum 1a to looped/cyclic peptides of protein X4 of SARS-CoV Urbani", "setting": "[1]", "value": 0.8},
      {"measurement": "Binding of serum 1b to linear peptides of protein X4 of SARS-CoV Urbani", "setting": "[1]", "value": 0.6},
      {"measurement": "Binding of serum 1b to looped/cyclic peptides of protein X4 of SARS-CoV Urbani", "setting": "[1]", "value": 0.5},
      {"measurement": "Binding of serum 2 to linear peptides of protein X4 of SARS-CoV Urbani", "setting": "[1]", "value": 0.6},
      {"measurement": "Binding of serum 2 to looped/cyclic peptides of protein X4 of SARS-CoV Urbani", "setting": "[1]", "value": 0.7},
      {"measurement": "Binding of serum 6 to linear peptides of protein X4 of SARS-CoV Urbani", "setting": "[1]", "value": 1.1},
      {"measurement": "Binding of serum 6 to looped/cyclic peptides of protein X4 of SARS-CoV Urbani", "setting": "[1]", "value": 0.8},
      {"measurement": "Binding of serum 37 to linear peptides of protein X4 of SARS-CoV Urbani", "setting": "[1]", "value": 0.9},
      {"measurement": "Binding of serum 37 to looped/cyclic peptides of protein X4 of SARS-CoV Urbani", "setting": "[1]", "value": 0.7},
      {"measurement": "Binding of serum 62 to linear peptides of protein X4 of SARS-CoV Urbani", "setting": "[1]", "value": 0.8},
      {"measurement": "Binding of serum 62 to looped/cyclic peptides of protein X4 of SARS-CoV Urbani", "setting": "[1]", "value": 0.6},
      {"measurement": "Binding of serum London to linear peptides of protein X4 of SARS-CoV Urbani", "setting": "[1]", "value": 0.8},
      {"measurement": "Binding of serum London to looped/cyclic peptides of protein X4 of SARS-CoV Urbani", "setting": "[1]", "value": 0.3},
      {"measurement": "Binding of serum SARS-green to linear peptides of protein X4 of SARS-CoV Urbani", "setting": "[1]", "value": 0.7},
      {"measurement": "Binding of serum SARS-green to looped/cyclic peptides of protein X4 of SARS-CoV Urbani", "setting": "[1]", "value": 0.4},
      {"measurement": "Binding of serum SARS-yellow to linear peptides of protein X4 of SARS-CoV Urbani", "setting": "[1]", "value": 0.6},
      {"measurement": "Binding of serum SARS-yellow to looped/cyclic peptides of protein X4 of SARS-CoV Urbani", "setting": "[1]", "value": 0.7},
      {"measurement": "Binding of Control Serum Blood-Bank to Looped peptides", "setting": "[2]", "value": 0.6},
      {"measurement": "Binding of Control serum Blood-bank to linear peptides", "setting": "[2]", "value": 0.8},
      {"measurement": "Binding of Control serum LUMC to linear peptides", "setting": "[2]", "value": 0.7},
      {"measurement": "Binding of Control serum LUMC to looped peptides", "setting": "[2]", "value": 0.7},
      {"measurement": "Recognition of the peptide by the rabbit serum", "setting": "[3]", "value": "recognized"}
    ]},
    {"sequence": "RIIMRCWLCWKCKSK", "values": [
      {"measurement": "Binding of serum 1a to looped/cyclic peptide (PEPSCAN-ELISA)", "setting": "[1]", "value": 0.2},
      {"measurement": "Binding of serum 1b to looped/cyclic peptide (PEPSCAN-ELISA)", "setting": "[1]", "value": 0.2},
      {"measurement": "Binding of serum 2 to looped/cyclic peptide (PEPSCAN-ELISA)", "setting": "[1]", "value": 0.1},
      {"measurement": "Binding of serum 6 to looped/cyclic peptide (PEPSCAN-ELISA)", "setting": "[1]", "value": 0.1},
      {"measurement": "Binding of serum 37 to looped/cyclic peptide (PEPSCAN-ELISA)", "setting": "[1]", "value": 0.2},
      {"measurement": "Binding of serum 62 to looped/cyclic peptide (PEPSCAN-ELISA)", "setting": "[1]", "value": 0.3},
      {"measurement": "Binding of serum London to looped/cyclic peptide (PEPSCAN-ELISA)", "setting": "[1]", "value": 0.1},
      {"measurement": "Binding of serum SARS-green to looped/cyclic peptide (PEPSCAN-ELISA)", "setting": "[1]", "value": 0.1},
      {"measurement": "Binding of serum SARS-yellow to looped/cyclic peptide (PEPSCAN-ELISA)", "setting": "[1]", "value": 0.1},
      {"measurement": "Recognition of the peptide by sera of SARS-CoV infected individuals, and form (linear, looped/cyclic) in which it is recognized", "setting": "[1]", "value": "recognized in linear form"},
      {"measurement": "Binding of Control Serum Blood-Bank to Looped peptides", "setting": "[2]", "value": 0.3},
      {"measurement": "Binding of Control serum Blood-bank to linear peptides", "setting": "[2]", "value": 0.3},
      {"measurement": "Binding of Control serum LUMC to linear peptides", "setting": "[2]", "value": 0.2},
      {"measurement": "Binding of Control serum LUMC to looped peptides", "setting": "[2]", "value": 0.3},
      {"measurement": "Binding of a rabbit serum to linear peptides", "setting": "[3]", "value": 0.1},
      {"measurement": "Binding of a rabbit serum to looped peptides", "setting": "[3]", "value": 0.3}
    ]},
    {"sequence": "RINWVTGGIAIAMAC", "values": [
      {"measurement": "Binding of serum 1a to linear peptides of protein M of SARS-CoV Urbani", "setting": "[1]", "value": 0.7},
      {"measurement": "Binding of serum 1a to looped/cyclic peptides of protein M of SARS-CoV Urbani", "setting": "[1]", "value": 0.7},
      {"measurement": "Binding of serum 1b to linear peptides of protein M of SARS-CoV Urbani", "setting": "[1]", "value": 0.7},
      {"measurement": "Binding of serum 1b to looped/cyclic peptides of protein M of SARS-CoV Urbani", "setting": "[1]", "value": 0.2},
      {"measurement": "Binding of serum 2 to linear peptides of protein M of SARS-CoV Urbani", "setting": "[1]", "value": 0.6},
      {"measurement": "Binding of serum 2 to looped/cyclic peptides of protein M of SARS-CoV Urbani", "setting": "[1]", "value": 0.6},
      {"measurement": "Binding of serum 6 to linear peptides of protein M of SARS-CoV Urbani", "setting": "[1]", "value": 0.8},
      {"measurement": "Binding of serum 6 to looped/cyclic peptides of protein M of SARS-CoV Urbani", "setting": "[1]", "value": 0.4},
      {"measurement": "Binding of serum 37 to linear peptides of protein M of SARS-CoV Urbani", "setting": "[1]", "value": 0.5},
      {"measurement": "Binding of serum 37 to looped/cyclic peptides of protein M of SARS-CoV Urbani", "setting": "[1]", "value": 0.7},
      {"measurement": "Binding of serum 62 to linear peptides of protein M of SARS-CoV Urbani", "setting": "[1]", "value": 0.5},
      {"measurement": "Binding of serum 62 to looped/cyclic peptides of protein M of SARS-CoV Urbani", "setting": "[1]", "value": 0.7},
      {"measurement": "Binding of serum London to linear peptides of protein M of SARS-CoV Urbani", "setting": "[1]", "value": 0.5},
      {"measurement": "Binding of serum London to looped/cyclic peptides of protein M of SARS-CoV Urbani", "setting": "[1]", "value": 0.2},
      {"measurement": "Binding of serum SARS-green to linear peptides of protein M of SARS-CoV Urbani", "setting": "[1]", "value": 0.6},
      {"measurement": "Binding of serum SARS-green to looped/cyclic peptides of protein M of SARS-CoV Urbani", "setting": "[1]", "value": 0.3},
      {"measurement": "Binding of serum SARS-yellow to linear peptides of protein M of SARS-CoV Urbani", "setting": "[1]", "value": 0.3},
      {"measurement": "Binding of serum SARS-yellow to looped/cyclic peptides of protein M of SARS-CoV Urbani", "setting": "[1]", "value": 0.7},
      {"measurement": "Binding of Control Serum Blood-Bank to Looped peptides of the protein M of SARS-CoV Urbani", "setting": "[2]", "value": 0.5},
      {"measurement": "Binding of Control serum Blood-bank to linear peptides of the protein M of SARS-CoV Urbani", "setting": "[2]", "value": 0.8},
      {"measurement": "Binding of Control serum LUMC to linear peptides of the protein M of SARS-CoV Urbani", "setting": "[2]", "value": 0.8},
      {"measurement": "Binding of Control serum LUMC to looped peptides of the protein M of SARS-CoV Urbani", "setting": "[2]", "value": 0.8},
      {"measurement": "Rabbit serum linear peptides", "setting": "[3]", "value": 0.2},
      {"measurement": "Rabbit serum looped peptides", "setting": "[3]", "value": 0.4}
    ]}
  ]
}
